Measured values from patent publication US20060228313A1, “Method of cosmetic depigmentation care by applying at least one aurone” (Coletica, priority 2005, published 2006).

Target: T1, Human tyrosinase (Homo sapiens, UniProt P14679)
T1 construct: Normal human melanocytes (originating from abdominal plasty) are sown in a 24-well plate; endogenous in cells; host or cells: normal human melanocytes (abdominal plasty; donors of light, brown and black phototype)
T1 sequence (P14679 19-529): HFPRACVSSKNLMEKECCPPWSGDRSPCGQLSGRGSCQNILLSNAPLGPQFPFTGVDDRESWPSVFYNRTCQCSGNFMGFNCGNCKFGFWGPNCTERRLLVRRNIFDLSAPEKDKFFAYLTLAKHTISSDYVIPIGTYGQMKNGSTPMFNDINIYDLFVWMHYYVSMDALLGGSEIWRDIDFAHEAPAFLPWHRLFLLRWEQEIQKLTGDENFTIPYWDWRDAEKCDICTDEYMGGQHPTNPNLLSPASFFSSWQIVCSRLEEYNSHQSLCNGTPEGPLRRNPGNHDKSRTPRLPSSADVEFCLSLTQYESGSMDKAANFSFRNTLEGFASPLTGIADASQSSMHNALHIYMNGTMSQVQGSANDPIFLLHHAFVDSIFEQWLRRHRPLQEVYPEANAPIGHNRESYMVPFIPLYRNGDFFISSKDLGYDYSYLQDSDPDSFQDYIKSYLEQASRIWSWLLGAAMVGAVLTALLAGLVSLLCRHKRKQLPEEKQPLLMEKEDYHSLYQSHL
Assay: Inhibition of human tyrosinase in a monolayer after application of the actives on normal human melanocytes
Format: cell-based
Conditions: for Inhibition of human tyrosinase after application on normal human melanocytes, percentage inhibition: 24 hours
Experimental: Normal human melanocytes (originating from abdominal plasty) are sown in a 24-well plate at the rate of 80,000 cells per well. They are cultivated up to confluence and the actives are applied for 24 hours in the culture media. After 24 hours, the media are removed and the melanocytes are picked up by mechanical action. An extraction is made by heat shock and the supernatants are then recovered and then incubated with MBTH (Sigma) and L-Dopa (Sigma). The OD at 490 nm is measured after 30 minutes, and the inhibition is of the tyrosinase is calculated by comparing the OD at 490 nm to the protein level (measured in each culture well) of the test with respect to the ratio: OD 490 nm/concentration of protein of the negative control (non-treated control). […]

Row | SMILES | Inhibition of human tyrosinase after application on normal human melanocytes, percentage inhibition (10^−4M) | Inhibition of human tyrosinase after application on normal human melanocytes, percentage inhibition (10^−5M) | Inhibition of human tyrosinase on normal human melanocytes, result in words (model of Example 15)
1 | CCc1ccccc1/C=C1\Oc2cc(O)ccc2C1=O [Example 3b, (Z)-2-(2′-Ethyl)Benzylidene-6-Hydroxybenzofuran-3(2H)-one] | 0% | 0% | –
2 | CCc1ccc(/C=C2\Oc3cc(OC)cc(OC)c3C2=O)o1 [Example 5n, (Z)-4,6-Dimethoxy-2-[(5-ethylfuran)methylene]benzofuran-3(2H)-one] | 7.8% | 0% | –
3 | CCc1ccc(/C=C2\Oc3cc(O)ccc3C2=O)cc1 [Example 3a, (Z)-2-(4′-Ethyl)Benzylidene-6-Hydroxybenzofuran-3(2H)-one] | 0% | 23.9% | –
4 | COc1cc(OC)c2c(c1)O/C(=C\c1ccc(S(=O)(=O)O)cc1)C2=O [Example 5e, (Z)-4,6-dimethoxy-2-(4′-sulfonatebenzylidene)benzofuran-3(2H)-one] | 0% | 1.44% | –
5 | COc1cc(OC)c2c(c1)O/C(=C\c1ccc(S(=O)(=O)O)cc1S(=O)(=O)O)C2=O [Example 5f, (Z)-4,6-dimethoxy-2-(2′,4′-disulfonatebenzylidene)benzofuran-3(2H)-one] | 9.36% | 2.88% | –
6 | COc1cc(OC)c2c(c1)O/C(=C\c1cccs1)C2=O [Example 5p, (Z)-4,6-Dimethoxy-2-[(thiophene)methylene]benzofuran-3(2H)-one] | 31.3% | 6.4% | –
7 | O=C1/C(=C/c2cccs2)Oc2cc(O)cc(O)c21 [Example 7p, (Z)-4,6-Dihydroxy-2-[(thiophene)methylene]benzofuran-3(2H)-one] | 35.2% | 15.3% | –
8 | COc1cc(OC)c2c(c1)O/C(=C\c1ccc[nH]1)C2=O [Example 5s, (Z)-4,6-Dimethoxy-2-[(pyrrole)methylene]benzofuran-3(2H)-one] | 13.7% | 0% | –
9 | CCc1ccc(/C=C2\Oc3cc(OC)cc(OC)c3C2=O)s1 [Example 5r, (Z)-4,6-Dimethoxy-2-[(5-ethylthiophene)methylene]benzofuran-3(2H)-one] | 11.9% | 2.1% | –
10 | COc1cc(OC)c2c(c1)O/C(=C\c1ccco1)C2=O [Example 5m, (Z)-4,6-Dimethoxy-2-[(furan)methylene]benzofuran-3(2H)-one] | 19.5% | 6.4% | –
11 | O=C1/C(=C/c2ccc[nH]2)Oc2cc(O)cc(O)c21 [Example 7s, (Z)-4,6-Dihydroxy-2-[(pyrrole)methylene]benzofuran-3(2H)-one] | 22.8% | 9.1% | –
12 | COc1cc(OC)c2c(c1)O/C(=C\c1ccc(C)s1)C2=O [Example 5q, (Z)-4,6-Dimethoxy-2-[(5-methylthiophene)methylene]benzofuran-3(2H)-one] | 4.8% | 0% | –
13 | COc1cc(OC)c2c(c1)O/C(=C\c1[nH]c(C)cc1C)C2=O [Example 5t, (Z)-4,6-Dimethoxy-2-[(3,5-dimethylpyrrole)methylene]benzofuran-3(2H)-one] | 5.1% | 0% | –
14 | O=c1cc(-c2ccc(O)cc2)oc2cc(O)cc(O)c12 [Apigenin, reference compound] | – | – | do not inhibit tyrosinase
15 | COc1cc(OC)c2c(c1)O/C(=C\c1cc(C)c(C)o1)C2=O [Example 5o, (Z)-4,6-Dimethoxy-2-[(4,5-dimethylfuran)methylene]benzofuran-3(2H)-one] | 23.2% | 12.1% | –

The next lines start with the values.

Row | Inhibition of human tyrosinase after application on normal human melanocytes, percentage inhibition (10^−4M) | Inhibition of human tyrosinase after application on normal human melanocytes, percentage inhibition (10^−5M) | Inhibition of human tyrosinase on normal human melanocytes, result in words (model of Example 15) | SMILES
16 | 13.6% | 4.5% | – | Cc1cc(/C=C2\Oc3cc(O)cc(O)c3C2=O)oc1C [Example 7o, (Z)-4,6-Dihydroxy-2-[(4,5-dimethylfuran)methylene]benzofuran-3(2H)-one]
17 | 0% | 6.1% | – | CCc1ccccc1/C=C1\Oc2cc(O)cc(O)c2C1=O [Example 7l]
18 | 13.8% | 0% | – | CCc1ccc(/C=C2\Oc3cc(O)cc(O)c3C2=O)s1 [Example 7r, (Z)-4,6-Dihydroxy-2-[(5-ethylthiophene)methylene]benzofuran-3(2H)-one]
19 | 0% | 31.86% | – | CC(C)c1ccc(/C=C2\Oc3cc(O)cc(O)c3C2=O)cc1 [Example 7i]
20 | 5.43% | 26.88% | – | CCCc1ccc(/C=C2\Oc3cc(O)cc(O)c3C2=O)cc1 [Example 7h]
21 | 26.4% | 0% | – | Cc1cc(C)c(/C=C2\Oc3cc(O)cc(O)c3C2=O)[nH]1 [Example 7t, (Z)-4,6-Dihydroxy-2-[(3,5-dimethylpyrrole)methylene]benzofuran-3(2H)-one]
22 | 16.4% | 7% | – | Cc1ccc(/C=C2\Oc3cc(O)cc(O)c3C2=O)s1 [Example 7q, (Z)-4,6-Dihydroxy-2-[(5-methylthiophene)methylene]benzofuran-3(2H)-one]
23 | 12.85% | 4.32% | – | O=C1/C(=C/c2ccccc2O)Oc2cc(O)cc(O)c21 [Example 9c]
24 | 0% | 4.83% | – | O=C1/C(=C/c2ccc(S(=O)(=O)O)cc2)Oc2cc(O)cc(O)c21 [Example 7e]
25 | 28.5% | 13.4% | – | CCc1ccc(/C=C2\Oc3cc(O)cc(O)c3C2=O)o1 [Example 7n, (Z)-4,6-Dihydroxy-2-[(5-ethylfuran)methylene]benzofuran-3(2H)-one]
26 | 0% | 25.1% | – | CC(C)(C)c1ccc(/C=C2\Oc3cc(O)cc(O)c3C2=O)cc1 [Example 7k]
27 | 23.6% | 6.4% | – | O=C1/C(=C/c2ccco2)Oc2cc(O)cc(O)c21 [Example 7m, (Z)-4,6-Dihydroxy-2-[(furan)methylene]benzofuran-3(2H)-one]
